From article PMC11199504, “New hemisynthetic derivatives of sphaeropsidin phytotoxins triggering severe endoplasmic reticulum swelling in cancer cells” (Scientific Reports, 2024)

What was measured:
[1] = target: chymotrypsin-like activity of the proteasome (Homo sapiens, UniProt P28074); test: Cellular proteasomal chymotrypsin-like activity; assay type: cell-based; conditions: 13 at 1 µM, 6 h of treatment, both SKMEL-28 and U373
Procedure: The chemotrypsin-like, trypsin-like and caspase-like activities of the proteasome were evaluated in cells with the G8660, G8861 and G8761 kits respectively according to the manufacturer’s instructions (Promega, USA). Briefly, the assays are based on the use of short amino-acid sequences coupled with luciferin and that can be specifically cleaved by each catalytic unit of the proteasomal complex. For this purpose, cells were seeded in 96 well plates 24 h before their treatment with 1 (5 µM), 13 (1 µM) for 6 h or with the positive control MG132 (1 µM) for 24 h. At the end of the treatments, cells were washed three times with PBS and permeabilized with digitonin (0.5 mg/mL; 50 µL per well) under shaking for 10 min. Then, 50 µL of a mixture of the substrate of interest and luciferase were added for 15 min under slow shaking. Luminescence levels quantified with the Active-Glo LR-100 luminometer (DSLabs, Suisse) were normalized according the number of viable cells evaluated in parallel in the same conditions by means of MTT assay.

U373 cells = test: Annexin-V/propidium iodide staining by flow cytometry; assay type: cell-based, human; conditions: 24 h of treatment
Procedure: (§1) Cell death induced by compounds 1 and 13 was evaluated by means of the double annexin-V/propidium iodide staining by flow cytometry with the FITC Annexin V apoptosis detection kit from BD Pharmingen (USA) according to the manufacturer’s instructions. Briefly, cells were cultured and treated in 25 cm^2 flasks. At the end of the treatment, all cells (adherent and floating cells) were collected, washed and resuspended at 10^6 cells/mL. 100 µL of the cell suspension were stained with 5 µL of FITC-annexin-V and 5 µL of propidium iodide for 15 min at rt in the dark. 400 µL of buffer were then added before data acquisition of 10,000 events per sample (Gallios, Beckman Coulter, Belgium). Caspase activation is usually evaluated to confirm or not the apoptotic feature of the cell death induced. For this purpose, we used the caspase-3, -8 and 9 multiplex assay (Ab219915, Abcam, UK) following manufacters’ instructions. In this assay, cells were exposed to short peptidic sequences linked to different fluorochromes and that could be specifically cleaved by each of these caspases. This assay thereby allowed simultaneous evaluation of the three caspase activities thanks to the quantification of the three fluorophores released in a SynergyMX plate fluorimeter (Biotek, USA).

[2] = test system: 60 cancer cell line panel; test: NCI 60 cancer cell line panel testing; assay type: cell-based
Description: Cell lines are grouped by cancer type [origin]. Determination of the concentration that reduced by 50 % the
Log10 differences are represented by the bars. If a cell line is more sensitive , the bar is on the right , if it is less
sensitive, the bar is on the left. Similar data are represen ted for the 50 % lethal concentration [LC 50] of each
(1 picture or pasted object on this page, not shown here)

caspase-3, -8 and 9 = test: Caspase-3, -8 and -9 multiplex assay in U373; assay type: cell-based, human; conditions: U373 cells, until 24 h of treatment
Procedure: as §1

caspase-3 = test: Caspase multiplex assay, caspase-3 in SKMEL-28; assay type: cell-based, human; conditions: SKMEL-28 cells, 15 h of treatment
Procedure: as §1

SKMEL-28 and U373 cells = test: Reversibility assay; assay type: cell-based, human; conditions: after 6 h of treatment, both cell lines
Procedure: The reversibility of the effects induced by compounds 13 was evaluated through qualitative microscopic observation of the cell cultures (morphology and confluence of the cell culture) over time after having been exposed or not to the compound for 1, 3 or 6 h. Negative control corresponds to untreated cells while positive control corresponds to cells treated with 13 continuously over the whole experiment. Briefly, 6 × 10^4 cells per well were seeded in 6 well plates and incubated for 24 h before their use. Culture medium was then replaced by fresh medium with or without compound 13. After 1, 3 or 6 h of treatment, cells were washed and the culture medium was renewed. Pictures were taken at different time points starting at t = 0 when the treatment was applied to the cells, 6 h, 24 h and 72 h thereafter.

caspase-8 = test: Caspase multiplex assay, caspase-8 in SKMEL-28; assay type: cell-based, human; conditions: SKMEL-28 cells, 15 h of treatment
Procedure: as §1

[3] = design: method as in PMID 33016969; conditions: cited from earlier work
NKCC = conditions: cited from earlier work

Chain of chymotrypsin-like activity of the proteasome (P28074 60-263): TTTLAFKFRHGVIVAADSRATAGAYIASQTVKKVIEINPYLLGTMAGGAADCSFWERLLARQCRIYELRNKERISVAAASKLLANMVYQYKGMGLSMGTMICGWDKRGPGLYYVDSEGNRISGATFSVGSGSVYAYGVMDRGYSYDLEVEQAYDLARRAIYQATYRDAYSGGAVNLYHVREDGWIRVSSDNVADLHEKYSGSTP

| Compound | inhibition at 1 µM [1] [%] | cells positive to annexin-V (U373 cells) | CC50 ([2]; NCI 60 cancer cell line panel, read-out: global mean LC50) [µM] | GI50 ([2]; NCI, 48 h of culture, read-out: mean GI50 against the 60 cancer cell line panel) [µM] | caspase activation (caspase-3, -8 and 9) | caspase-3 activity (caspase-3) | reversibility of effects (SKMEL-28 and U373 cells) | caspase-8 activity (caspase-8) | stability in physiological medium [3] | concentration inhibiting NKCC activity (NKCC) |
| --- | --- | --- | --- | --- | --- | --- | --- | --- | --- | --- |
| CC1(C=CCCCc2ccc3ccc4cccc5ccc2c3c45)C=C2C(=O)C3(O)OC(=O)C4(CCCC(C)(C)C34)C2(O)CC1 (stereo not shown) [Compound 13] | > 60 | more than 60% | 1.5 | 0.19 | no caspase activation could be detected | markedly increased | irreversible | markedly increased | – | – |
| C=C[C@]1(C)C=C2C(=O)[C@@]3(O)OC(=O)[C@@]4(CCCC(C)(C)[C@H]34)[C@@]2(O)CC1 [Compound 1, sphaeropsidin A, reference compound] | – | – | – | – | – | – | – | – | instability | low micromolar |
